Reference: ChEMBL document CHEMBL3108675, “Structure, absolute configuration, and antidiarrheal activity of a thymol derivative from Ageratina cylindrica” (J Nat Prod, 2014)
Structures can show the parent of a compound that is named as a salt.

Experiments:
Rattus norvegicus = species: Rattus norvegicus; test: Antidiarrheal activity in rat assessed as inhibition of charcoal-gum acacia-induced hyperperistalsis; type: functional; conditions: read-out: ID50 (the source's name)
Entamoeba histolytica = test: Antiprotozoal activity against Entamoeba histolytica HM-1:IMSS; type: functional, organism-based
Giardia intestinalis = test: Antiprotozoal activity against Giardia lamblia IMSS:1090:1; type: functional, organism-based; conditions: Giardia duodenalis

Work on `CN(C)C(=O)C(CCN1CCC(O)(c2ccc(Cl)cc2)CC1)(c1ccccc1)c1ccccc1` [LOPERAMIDE HYDROCHLORIDE] yielded an ED50 (Rattus norvegicus) of 0.2 µmol/kg.

For `CC(C)C(=O)Oc1cc(C=O)c(O)cc1[C@@]1(COC(=O)c2ccccc2)CO1`, the ED50 (Rattus norvegicus) was 0.85 µmol/kg, the IC50 (Entamoeba histolytica) was 185 µM and the IC50 (Giardia intestinalis) was 167 µM.

`Oc1cc(O)c2c(c1)OC(c1ccc(O)c(O)c1)C(O)C2` (stereo not drawn) [CATECHIN] was tested, and the IC50 (Entamoeba histolytica) was 226 µM and the IC50 (Giardia intestinalis) was 117 µM.

Molecule `CC[C@H]1CN2CCc3cc(OC)c(OC)cc3[C@@H]2C[C@@H]1C[C@H]1NCCc2cc(OC)c(OC)cc21` [EMETINE] has an IC50 (Giardia intestinalis) of 0.83 µM.

For `Cc1ncc([N+](=O)[O-])n1CCO` [METRONIDAZOLE], the IC50 (Entamoeba histolytica) was 0.23 µM.
